EC50, IC50 and outcome data for 70 molecules are collected here from PubChem BioAssay AID179 (DTP/NCI, 2004).

SMILES strings stand for the structures. pEC50, pIC50: −log10 of the molar value. The source made the active and inactive calls.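 The calls were made as follows: active = compounds giving half or more protection of infected cells from virus-caused growth loss, again on retest; inactive = the rest.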 Where a SMILES comes first, the peptide text is derived from it. [ ]: non-standard residue; d: D form. The star is where a group is joined. NMeF = CN[CH](Cc1ccccc1)C(=O)O; NMeV = CN[CH](C(=O)O)C(C)C; Boc = CC(C)(C)OC(=O)*; OBn = c1ccc(CO*)cc1

The test system of this assay is CEM cells HIV-1 protection, formazan growth assay. Nature of the assay: NCI AIDS Antiviral Assay. To be noted: for pIC50: measured here: growth of uninfected CEM cells. The gist of the method:
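Soluble formazan readout of cell growth; CEM cells ± HIV-1; 5 drug concs. ≥50% protection → retest; ≥50% again = moderately active; reproducible 100% = confirmed active.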

Consider `COC(=O)C(Cc1ccccc1)N=Cc1c(O)c(O)c(C(C)C)c2cc(C)c(-c3c(C)cc4c(C(C)C)c(O)c(O)c(C=NC(Cc5ccccc5)C(=O)OC)c4c3O)c(O)c12` (stereo unspecified), for which the pEC50 (commonly −log10 of the EC50, conventionally taken in molar units) was under 4.93 and the negative-log IC50 (pIC50) – broadly, −log10 of the IC50, conventionally taken in molar units – was under 4.93. For the molecule `CC1S(=O)C(C)S(=O)C(C)S1=O` (stereo unspecified), the outcome was inactive. As to `CCN(CC)CC(=O)Nc1ccc2c(c1)C(=O)c1ccc(NC(=O)CN(CC)CC)cc1C2=O`, the pEC50 was under 4.00 and the pIC50 was 5.68.

For `N#CCCN(CCC#N)C(=O)c1cccc(C(=O)N(CCC#N)CCC#N)c1`, the outcome was inactive. `COc1ccc([C@H]2CC(=O)C[C@H](c3ccc(OC)cc3OC)C23C(=O)c2ccccc2C3=O)c(OC)c1`: the pEC50 was under 3.70 and the pIC50 was 3.82. Regarding `CC1=C(C(=O)Nc2ccccc2)C(c2cccc3ccccc23)C(C(=O)Nc2ccccc2)=C(C)N1`, the result was inactive. In the case of `Cn1c(=O)c2nc(NCC3CCCCC3)sc2n(C)c1=O`, the pEC50 was under 3.97 and the negative logarithm of the IC50 (pIC50) was 3.99. Take `CC(C)[C@@H](C)/C=C/[C@@H](C)C1CC2C3=CC=C4C[C@@H](OC5OCC(O)C6OC(=O)C(=O)OC56)CC[C@]4(C)C3CC[C@]2(C)C1` (stereo partly specified): the pEC50 was under 3.70 and the negative-log IC50 (pIC50) was 4.96. The corresponding values for `O=c1[nH]c(=O)n(C2OC(CO)C(O)C2O)cc1F` (stereo unspecified) are under 4.70 and 8.20. The corresponding values for `Cc1ccc(C)n1-n1c(Cc2ccccc2)n[nH]c1=O` are under 3.70 and 4.08. Take `CO/C(=N\N=C\c1cc(OC)ccc1OC)c1ccncc1`: the pEC50 was under 4.62 and the negative logarithm of the IC50 (pIC50) is under 4.62. As to `CC(C)C(NC(=O)OC(C)(C)C)C(=O)N(C)C(Cc1ccccc1)C(=O)N(C)C(C(=O)N(C)C(C(=O)OCc1ccccc1)C(C)C)C(C)C` (stereo unspecified) (Boc-V[NMeF][NMeV][NMeV]-OBn; configuration not given here), the pEC50 is under 3.70 and the pIC50 is under 3.70. `N#Cc1c2n(c(=S)n(-c3ccccc3)c1=N)CCCCCCC2`: the pEC50 was under 3.70 and the negative logarithm of the IC50 (pIC50) is 4.97.

As to `CCOC(=O)Cc1csc2nc(-c3ccccc3)nn12`, the pEC50 was under 3.70 and the pIC50 is 3.88. The corresponding values for `CC1(C)CC(C2CC(C)(C)CC(C)(C)[C@H]2O)[C@@H](O)C(C)(C)C1` (stereo partly specified) are under 4.92 and under 4.92.

Take `O=c1cc(NNc2ccc3ccccc3c2)[nH]c(=S)[nH]1`: the pEC50 is under 3.70 and the negative-log IC50 (pIC50) is 4.41. As to `COC(=O)c1cccc(C)c1C1CN=NC12Cc1c(ccc(C)c1C)C2=O` (stereo unspecified), the pEC50 is under 3.70 and the pIC50 is under 3.70.

Regarding `CC(=O)c1cc2ccccc2n(O)c1=N`, the pEC50 is under 3.70 and the negative logarithm of the IC50 (pIC50) was under 3.70. Consider `C/C(=N\NC(N)=O)c1ccccc1`, for which the result was inactive.

On to `O=C(NCC(O)COc1ccccc1)c1ccccc1O` (stereo unspecified), for which the pEC50 was under 3.70 and the negative-log IC50 (pIC50) is 3.94. Turning to `CCOC(=O)C(Cc1cccc2ccccc12)S(=O)(=O)c1ccc(C)cc1` (stereo unspecified), the pEC50 was under 4.18 and the negative-log IC50 (pIC50) was 4.73. Take `CC/C(=N\NS(=O)(=O)c1ccccc1)c1ccccc1`: the result was inactive. On to `CCCCCCCCOP(=O)(/C=C/c1ccccc1)OCCCCCCCC`, for which the pEC50 is under 5.18 and the pIC50 is under 5.18. For the molecule `CSC(=S)Nc1cccc(C)n1`, the pEC50 was under 3.70 and the pIC50 was 3.99. For the molecule `O=C1C(=Cc2c(O)cc(O)cc2O)C(=O)c2ccccc21`, the pEC50 was under 4.75 and the negative logarithm of the IC50 (pIC50) was under 4.75. For the molecule `Oc1cc(-c2ccccc2)cn2c1nc1ccccc12`, the pEC50 was under 3.70 and the negative-log IC50 (pIC50) is 5.97.

Take `Cc1cccc2c1C(=O)/C(=C/c1ccccc1C(=O)O)C2`: the pEC50 was under 3.70 and the pIC50 was 3.91. In the same order, the values of `CCCCCCCCCCOC1C(C(O)CNCCCN(C)C)OC2OC3(CCCCC3)OC21` (stereo unspecified) are under 3.70 and 5.99. For `O=S(=O)(O)c1ccc(N=Nc2ccc(O)cc2O)cc1`, the pEC50 was under 3.70 and the pIC50 was 3.95. Consider `N#C/C(=C/C=C/c1ccco1)C(N)=O`, for which the pEC50 was under 3.70 and the pIC50 was under 3.70.

As to `O=[N+]([O-])c1ccc(CN(CCCl)OCCCl)cc1`, the pEC50 is under 3.70 and the negative-log IC50 (pIC50) was 4.43.

With `Cc1cc2c(=O)cc(-c3ccccc3Cl)oc2c(C(=O)O)c1C`, the pEC50 was under 3.70 and the pIC50 is under 3.70. Turning to `CN1c2ccccc2N(C(=O)c2ccc(Cl)cc2)C(CC(=O)O)c2cccn21` (stereo unspecified), the pEC50 was under 3.20 and the pIC50 is 3.93.

Turning to `CCOC(=O)c1c(-c2ccccc2)oc(=O)c(Cc2cccc3cccnc23)c1-c1ccccc1`, the pEC50 was under 3.70 and the pIC50 was under 3.70. `COC(=O)/C(=N\NC(=O)c1ccccc1O)C(C#N)c1ccc(Cl)cc1` (stereo unspecified): the pEC50 was under 3.32 and the pIC50 was 6.04. Turning to `Nc1nc(=O)n(C2OC(CO)CC2F)cc1Cl` (stereo unspecified), the pEC50 is under 3.72 and the negative logarithm of the IC50 (pIC50) is under 3.72.

As for `CCOC(=O)/C(=C/c1ccc2ccccc2c1)P(=O)(OCC)OCC`, the pEC50 is under 4.00 and the pIC50 was 4.62. The corresponding values for `COC(=O)[C@@H]1C[C@@H]2c3ccccc3N(S(=O)(=O)c3ccccc3)[C@@H]2N1C(=O)OC` are under 3.70 and under 3.70. Consider `CCOC(=O)c1c(N)[nH]c(SSc2[nH]c(N)c(C(=O)OCC)c2C(=O)OCC)c1C(=O)OCC`, for which the pEC50 is under 3.70 and the pIC50 is 6.38. As to `Nc1nc(=O)n(C2CCC(CO)O2)cc1F` (stereo unspecified), the negative logarithm of the EC50 (pEC50) is 6.82 and the negative-log IC50 (pIC50) is 4.49. With `Cc1cccc(N=Nc2c(C)nn(C(=O)c3ccccc3Cl)c2C)c1`, the result was inactive. Take `OC12c3ccccc3C1(N1CCOCC1)CCCCC21OCCCO1` (stereo unspecified): the pEC50 was 3.77 and the pIC50 is 3.53. The corresponding values for `CC1CCC/C1=C(/I)C(=O)c1ccccc1` (stereo unspecified) are under 3.70 and 4.23. The corresponding values for `CN/N=C(\C)CC(=O)Nc1cccc(Cl)c1C` are under 4.83 and under 4.83. In the same order, the values of `CCS(=O)c1c2cc(OC)ccc2nc2ccc(OC)cc12` (stereo unspecified) are under 3.70 and 5.86. As for `N#CCOc1ccc(/C=C/C(=O)c2ccc(Cl)cc2)cc1`, the pEC50 is under 3.70 and the pIC50 is 4.76. The corresponding values for `Cc1ccc2cc([N+](=O)[O-])c3ccc(C)nc3c2n1.Cc1ccc2cc([N+](=O)[O-])c3ccc(C)nc3c2n1.O=C1OC(C(O)C[O-])C(O)=C1O.[Cu+]` are under 4.90 and 5.74. In the same order, the values of `CC(C)=CCc1c(O)cc(O)c2c1O[C@H](c1cc3c(cc1O)O[C@@H](c1ccc(O)cc1)C3c1cc(O)cc(O)c1)CC2=O` (stereo partly specified) are under 4.11 and 4.44. In the same order, the values of `Fc1cccc(C=NC23CC4CC(CC(C4)C2)C3)c1` are under 4.28 and under 4.28. As to `CC1=N/C(=C\c2cccc(Br)c2)C(=O)O1`, the pEC50 is under 4.01 and the negative-log IC50 (pIC50) was 4.18. The corresponding values for `C[C@@H]1C[C@@H]2OC(=O)[C@]3(C)[C@H]2[C@@H](OC3(C)O)[C@]2(C)C(=O)C=C[C@@H]12` (stereo partly specified) are under 3.50 and 5.24. The corresponding values for `CC(=O)OCC1OC(n2c(=S)[nH]c(-c3ccccc3)c(C#N)c2=O)C(OC(C)=O)C(OC(C)=O)C1OC(C)=O` (stereo unspecified) are under 3.70 and 3.77. In the same order, the values of `c1ccc2nc3c(nc2c1)sc1nc2ccccc2n13` are under 3.70 and under 3.70. For `Cc1ccc2c3c(cnc2n1)C(=O)OCCN3C`, the pEC50 was under 3.70 and the negative logarithm of the IC50 (pIC50) was under 3.70. For the molecule `COc1ccc(C2=C(Cl)c3cc(OC)c(OC)cc3C2Cl)cc1` (stereo unspecified), the result was inactive. Turning to `CC(C)C1CC(CO)(CNc2nc(N)nc(Cl)c2/C=N\O)C1` (stereo unspecified), the pEC50 is under 4.70 and the pIC50 was 7.48. Take `CC(C)(CC(O)C#N)/[N+]([O-])=[N+](\[O-])C(C)(C)CC(O)C#N` (stereo unspecified): the result was inactive. With `CN(C)CCS(=O)(=O)O`, the pEC50 is under 3.70 and the pIC50 is under 3.70. With `N#Cc1cc([N+](=O)[O-])ccc1NC(=O)C(=O)C(C(=O)c1ccc2ccccc2c1)C1OCc2ccccc21` (stereo unspecified), the pEC50 is under 4.15 and the negative logarithm of the IC50 (pIC50) is 4.43. In the same order, the values of `COCC(C#N)NC1CC(OC2CC(O)(C(=O)CO)Cc3c(O)c4c(c(O)c32)C(=O)c2c(OC)cccc2C4=O)OC(C)C1O` (stereo unspecified) are under 6.70 and 8.04. With `CC(CO)(CO)N1C(=O)C2C3c4ccccc4C(c4ccccc43)C2C1=O` (stereo unspecified), the pEC50 was under 3.70 and the pIC50 is under 3.70. As to `Cc1c(C(=O)O)oc2ccc([N+](=O)[O-])cc12`, the outcome was inactive. Regarding `O=CN1CCN(C=S)CC1`, the pEC50 was under 2.80 and the pIC50 is under 2.80. As for `CCOC(=S)SSSC(=S)OCC`, the pEC50 was under 3.96 and the pIC50 is 4.46. For `COC1/C=C\OC2(C)Oc3c(C)c(O)c4c(O)c(c(C=Nc5ccccc5C)c(O)c4c3C2=O)NC(=O)/C(C)=C\C=C/C(C)C(O)C(C)C(O)C(C)C(OC(C)=O)C1C` (stereo unspecified), the pEC50 was under 3.70 and the negative logarithm of the IC50 (pIC50) is 4.53. Regarding `Cn1c(=S)[nH]n(CCOc2ccccc2)c1=S`, the pEC50 is under 3.70 and the negative logarithm of the IC50 (pIC50) is under 3.70. `COc1cccc(CN2CC(C)N(N=Cc3c4c(O)c5c(O)c(C)c6c(c5c3O)C(=O)C(C)(O/C=C/C(OC)C(C)C(OC(C)=O)C(C)C(O)C(C)C(O)C(C)/C=C/C=C(\C)C(=O)N4)O6)C(C)C2)c1` (stereo unspecified): the pEC50 is under 3.70 and the negative-log IC50 (pIC50) was 5.14. The corresponding values for `COC(=O)C(C)NC(=O)c1ccccc1SC(=O)CCCC[n+]1ccccc1` (stereo unspecified) are under 3.70 and 5.62. The corresponding values for `CC12c3ccccc3C(C)(c3c1ccc1ccccc31)C1C(=O)OC(=O)C12` (stereo unspecified) are under 4.41 and 4.57. Take `CCOC(=O)C(NS(=O)(=O)c1ccccc1)(C(F)(F)F)P(=O)(OCC(C)C)OCC(C)C` (stereo unspecified): the pEC50 was under 3.70 and the pIC50 is 4.19.
